The values that follow come from US8097730B2, “Bicyclic heterocycles useful as selective androgen receptor modulators” (Janssen Pharmaceutica N.V., priority 2006, dated 2012).

Where two headings read alike, the source gives them in different places.

In assay [1] the test system is Immature castrated male Sprague Dawley rats; ventral prostate and seminal vesicle. The assay can be described thus: Ventral Prostate and Seminal Vesicle Weight In Vivo Assay (antagonist activity, percent inhibition of testosterone-enhanced tissue weights). On the set-up: species or system rat; key to Inhibition of prostate (non-weight prostate weight, mg): level 1 agonist active if it produced greater than or equal to 30% stimulation of levator ani or ventral prostate at 30 mg/kg; level 2 agonist active if it produced greater than or equal to 5% but less than 30% stimulation of levator ani or ventral prostate at 30 mg/kg; listed herein as “inactive” as they did not meet the specified criteria defined above. The settings on record: compound oral once daily for five days with testosterone propionate 2 mg/kg s.c., classes defined at 30 mg/kg; for inhibition in vivo at 30 mg/kg: Rattus norvegicus, 120 h. The procedure: Ventral Prostate and Seminal Vesicle Weight In Vivo Assay
Immature (approximately 50 g) castrated male Sprague Dawley rats (Charles River) were treated once daily for five days with test compound ([…], in 30% cyclodextrin or 0.5% methylcellulose vehicle) and with testosterone propionate (given subcutaneously by injection at the nape of the neck at 2 mg/kg, in a volume of 0.1 mL in sesame oil). On the sixth day, the rats were euthanized by asphyxiation in carbon dioxide. Ventral prosatates and seminal vesicles were removed and their wet weights determined. Test compound activity was determined as the percent inhibition of testosterone-enhanced tissue weights, with a vehicle-treated control group set to zero percent and a testosterone alone-treated control group set to 100%.
Representative compounds of the present invention were tested according to the procedure described, with results as listed in Table 4 below.

In assay [2] the test system is Immature castrated male Sprague Dawley rats; ventral prostate and levator ani. The assay can be described thus: Ventral Prostate and Levator Ani Weight In Vivo Assay (agonist activity, percent stimulation of tissue weight). Set-up: species or system rat; key to % Prostate Stimulation: level 1 agonist active if it produced greater than or equal to 30% stimulation of levator ani or ventral prostate at 30 mg/kg; level 2 agonist active if it produced greater than or equal to 5% but less than 30% stimulation of levator ani or ventral prostate at 30 mg/kg; listed herein as “inactive” as they did not meet the specified criteria defined above. Conditions: once daily for five days, oral, vehicle = 0%, testosterone alone = 100%, classes defined at 30 mg/kg; for change in vivo at 30 mg/kg: Rattus norvegicus, 120 h. The procedure:
Ventral Prostate and Levator Ani Weight In Vivo Assay
Immature (approximately 50 g) castrated male Sprague Dawley rats (Charles River) were treated once daily for five days with test compound (usually given orally at 40 mg/kg in a volume of 0.3 mL, in 30% cyclodextrin or 0.5% methylcellulose vehicle) and with testosterone propionate (given subcutaneously by injection at the nape of the neck at 2 mg/kg, in a volume of 0.1 mL in sesame oil). On the sixth day, the rats were euthanized by asphyxiation in carbon dioxide. Ventral prostates and levator ani muscles were removed and their wet weights determined.
Test compound activity was determined as the percent stimulation of tissue weight, with the vehicle-treated control group set to zero percent and the testosterone alone-treated control group set to 100%. A compound was designated as level 1 agonist active if it produced greater than or equal to 30% stimulation of levator ani or ventral prostate at 30 mg/kg. A compound was designated as level 2 agonist active if it produced greater than or equal to 5% but less than 30% stimulation of levator ani or ventral prostate at 30 mg/kg.
Representative compounds of the present invention were tested according to the procedure described, with results as listed in Table 3 below.

Setting [3] is: seminal vesicle wet weight, read-out: Inhibition of seminal vesicle (non-weight seminal vesicle weight, mg).
[4] abbreviates: ventral prostate wet weight, read-out: Inhibition of prostate (non-weight prostate weight, mg).
Setting [5] is: levator ani wet weight, read-out: % levator ani Stimulation.
Where [6] appears, read: ventral prostate wet weight, read-out: % Prostate Stimulation.

Regarding `CC12CC(C(F)(F)F)=NN1C(=O)N(c1ccc(C#N)c(C(F)(F)F)c1)C2=O` (centres unmarked) [Compound 1, 4-(3a-Methyl-4,6-dioxo-2-trifluoromethyl-3a,4-dihydro-3H-imidazo[1,5-b]pyrazol-5-yl)-2-trifluoromethyl-benzonitrile], the inhibition in vivo at 30 mg/kg in assay [1] (setting [3]) and in assay [1] (setting [4]) was 5 to 30% throughout. Moreover, the values for the change in vivo at 30 mg/kg in assay [2] (setting [5]) and in assay [2] (setting [6]) were at least 30% and 5 to 30%, respectively.
On to `C[C@]12CC(C(F)(F)F)=NN1C(=O)N(c1ccc(C#N)c(C(F)(F)F)c1)C2=O` [Compound 2, (R)-4-(3a-Methyl-4,6-dioxo-2-trifluoromethyl-3a,4-dihydro-3H-imidazo[1,5-b]pyrazol-5-yl)-2-trifluoromethyl-benzonitrile], for which the inhibition in vivo at 30 mg/kg in assay [1] (setting [3]) and in assay [1] (setting [4]) was 5 to 30% each time. Further, the results for the change in vivo at 30 mg/kg in assay [2] (setting [5]) and in assay [2] (setting [6]) were at least 30% and 5 to 30%, respectively.
Regarding `C[C@@]12CC(C(F)(F)F)=NN1C(=O)N(c1ccc(C#N)c(C(F)(F)F)c1)C2=O` [Compound 3, (S)-4-(3a-Methyl-4,6-dioxo-2-trifluoromethyl-3a,4-dihydro-3H-imidazo[1,5-b]pyrazol-5-yl)-2-trifluoromethyl-benzonitrile], the inhibition in vivo at 30 mg/kg in assay [1] (setting [3]) and in assay [1] (setting [4]) was 5 to 30% in each case. Further, the change in vivo at 30 mg/kg in assay [2] (setting [5]) and in assay [2] (setting [6]) was at least 30% in each case.
For `CC12CC=NN1C(=O)N(c1ccc(C#N)c(C(F)(F)F)c1)C2=O` (centres unmarked) [Compound 4, 4-(3a-Methyl-4,6-dioxo-3a,4-dihydro-3H-imidazo[1,5-b]pyrazol-5-yl)-2-trifluoromethyl-benzonitrile], the inhibition in vivo at 30 mg/kg in assay [1] (setting [3]) and in assay [1] (setting [4]) was 5 to 30% in each case. Moreover, the “% levator ani Stimulation” value in assay [2] (levator ani wet weight) is reported as “Inactive”. The “% Prostate Stimulation” value in assay [2] (ventral prostate wet weight) is “inactive”.
Consider `CCOC(=O)C1=NN2C(=O)N(c3ccc(C#N)c(C(F)(F)F)c3)C(=O)C2(C)C1` (centres unmarked) [Compound 5, 5-(4-Cyano-3-trifluoromethyl-phenyl)-3a-methyl-4,6-dioxo-3a,4,5,6-tetrahydro-3H-imidazo[1,5-b]pyrazole-2-carboxylic acid ethyl ester], for which the inhibition in vivo at 30 mg/kg in assay [1] (setting [3]) and in assay [1] (setting [4]) was 5 to 30% in each case. The “% levator ani Stimulation” value in assay [2] (levator ani wet weight) is “Inactive”. For the same compound, the “% Prostate Stimulation” value in assay [2] (ventral prostate wet weight) is “inactive”.
As for `CCOC(=O)C1=NN2C(=O)N(c3ccc([N+](=O)[O-])c(C(F)(F)F)c3)C(=O)C2(C)C1` (centres unmarked) [Compound 6, 3a-Methyl-5-(4-nitro-3-trifluoromethyl-phenyl)-4,6-dioxo-3a,4,5,6-tetrahydro-3H-imidazo[1,5-b]pyrazole-2-carboxylic acid ethyl ester], the inhibition in vivo at 30 mg/kg in assay [1] (setting [3]) and in assay [1] (setting [4]) was 5 to 30% throughout. In addition, in assay [2] (levator ani wet weight), the “% levator ani Stimulation” value is recorded as “Inactive”. Also, the “% Prostate Stimulation” value in assay [2] (ventral prostate wet weight) was “inactive”.
On to `CC(=O)Nc1ccc(C2=NN3C(=O)N(c4ccc(C#N)c(C(F)(F)F)c4)C(=O)C3(C)C2)cc1` (centres unmarked) [Compound 7, N-{4-[5-(4-Cyano-3-trifluoromethyl-phenyl)-3a-methyl-4,6-dioxo-3a,4,5,6-tetrahydro-3H-imidazo[1,5-b]pyrazol-2-yl]-phenyl}-acetamide], for which the inhibition in vivo at 30 mg/kg in assay [1] (setting [4]) fell in the range of 5 to 30%. In addition, the “Inhibition of seminal vesicle (non-weight seminal vesicle weight, mg)” value in assay [1] (seminal vesicle wet weight) is given as “Inactive”. Further, the change in vivo at 30 mg/kg in assay [2] (setting [5]) and in assay [2] (setting [6]) was 5 to 30% each time.
As to `CCOC(=O)C1=NN2C(=O)C(=O)N(c3ccc(C#N)c(C(F)(F)F)c3)C(=O)C2(C)C1` (centres unmarked) [Compound 8, 5-(4-Cyano-3-trifluoromethyl-phenyl)-3a-methyl-4,6,7-trioxo-3,3a,4,5,6,7-hexahydro-pyrazolo[1,5-a]pyrazine-2-carboxylic acid ethyl ester], the inhibition in vivo at 30 mg/kg in assay [1] (setting [3]) lay within 5 to 30%. Besides, in assay [1] (ventral prostate wet weight), the “Inhibition of prostate (non-weight prostate weight, mg)” value was “inactive”. Moreover, the change in vivo at 30 mg/kg in assay [2] (setting [5]) fell in the range of 5 to 30%. For the same compound, in assay [2] (ventral prostate wet weight), the “% Prostate Stimulation” value is “inactive”.
Consider `C[C@@]12CC(C(F)(F)F)=NN1[S+]([O-])N(c1ccc(C#N)c(C(F)(F)F)c1)C2=O` (stereo partly drawn) [Compound 10, (S)-4-(3a-Methyl-1,3-dioxo-5-trifluoromethyl-3a,4-dihydro-3H-1I4-thia-2,6,6a-triaza-pentalen-2-yl)-2-trifluoromethyl-benzonitrile], for which the inhibition in vivo at 30 mg/kg in assay [1] (setting [3]) is 5 to 30%; in assay [1] (setting [4]), at least 30%. In addition, the change in vivo at 30 mg/kg in assay [2] (setting [5]) and in assay [2] (setting [6]) was at least 30% each time.
Consider `C[C@@]12CC(C(F)(F)F)=NN1S(=O)(=O)N(c1ccc(C#N)c(C(F)(F)F)c1)C2=O` [Compound 11, 4-(3a-Methyl-1,1,3-trioxo-5-trifluoromethyl-3a,4-dihydro-3H-1I6-thia-2,6,6a-triaza-pentalen-2-yl)-2-trifluoromethyl-benzonitrile], for which the inhibition in vivo at 30 mg/kg in assay [1] (setting [3]) and in assay [1] (setting [4]) was 5 to 30% in each case. Also, the change in vivo at 30 mg/kg in assay [2] (setting [5]) and in assay [2] (setting [6]) was at least 30% each time.
As to `CC12COC(=O)N1C(=O)N(c1ccc(Cl)c(C(F)(F)F)c1)C2=O` (centres unmarked) [Compound 12, 6-(4-Chloro-3-trifluoromethyl-phenyl)-7a-methyl-dihydro-imidazo[1,5-c]oxazole-3,5,7-trione], the inhibition in vivo at 30 mg/kg in assay [1] (setting [3]) and in assay [1] (setting [4]) was 5 to 30% throughout. In assay [2] (levator ani wet weight), the “% levator ani Stimulation” value is given as “Inactive”. Moreover, the “% Prostate Stimulation” value in assay [2] (ventral prostate wet weight) is “inactive”.
Take `CC12CNC(=O)N1C(=O)N(c1ccc(Cl)c(C(F)(F)F)c1)C2=O` (centres unmarked) [Compound 13, 2-(4-Chloro-3-trifluoromethyl-phenyl)-7a-methyl-dihydro-imidazo[1,5-c]imidazole-1,3,5-trione]: the inhibition in vivo at 30 mg/kg in assay [1] (setting [3]) and in assay [1] (setting [4]) was at least 30% throughout. Moreover, in assay [2] (levator ani wet weight), the “% levator ani Stimulation” value is listed as “Inactive”. In addition, the “% Prostate Stimulation” value in assay [2] (ventral prostate wet weight) is “inactive”.
As to `CC12CNC(=O)N1C(=O)N(c1ccc(C#N)c(C(F)(F)F)c1)C2=O` (centres unmarked) [Compound 15, 4-(7a-Methyl-1,3,5-trioxo-tetrahydro-imidazo[1,5-c]imidazol-2-yl)-2-trifluoromethyl-benzonitrile], the inhibition in vivo at 30 mg/kg in assay [1] (setting [3]) and in assay [1] (setting [4]) was at least 30% each time. Moreover, the “% levator ani Stimulation” value in assay [2] (levator ani wet weight) is “Inactive”. Moreover, the “% Prostate Stimulation” value in assay [2] (ventral prostate wet weight) is “inactive”.
Turning to `CN1CC2(C)C(=O)N(c3ccc(Cl)c(C(F)(F)F)c3)C(=O)N2C1=O` (centres unmarked) [Compound 16, 2-(4-Chloro-3-trifluoromethyl-phenyl)-6,7a-dimethyl-dihydro-imidazo[1,5-c]imidazole-1,3,5-trione], the inhibition in vivo at 30 mg/kg in assay [1] (setting [3]) and in assay [1] (setting [4]) was at least 30% in each case. For the same compound, the “% levator ani Stimulation” value in assay [2] (levator ani wet weight) is “Inactive”. In assay [2] (ventral prostate wet weight), the “% Prostate Stimulation” value is “inactive”.
